# Test results published in ChEMBL document CHEMBL1144096, “New phenanthrene derivatives from maxillaria densa(1)” (J Nat Prod, 1999).
# System: Ileum
# Test: Inhibition of rat ileum contraction
# Format: functional, tissue-based
smiles,measurement,value
COc1ccc(Cc2nccc3cc(OC)c(OC)cc23)cc1OC [PAPAVERINE],IC50,1.55 µM
